This is an account of results in paper PMC5594493, “Antiproliferative factor (APF) binds specifically to sites within the cytoskeleton-associated protein 4 (CKAP4) extracellular domain” (BMC Biochemistry, 2017).

“And” between values parts separate entries of the source, which are not always exact repeats. Identical values can stand only once. “Also recorded” adds a separate entry of the source.

For one assay, the system named is CKAP4_106–602. The assay can be described thus: SPR, CKAP4_106–602 as immobilized ligand. The class given is binding. Conditions: CKAP4_106–602 immobilized on NTA chip. The protocol: (§1) All SPR experiments were performed on a Biacore X-100 instrument (GE Healthcare) with the chip surface at 25 °C using PBS containing 0.01% Tween-20 as running buffer. CKAP4 recombinant proteins were immobilized individually either by Ni^2+/nitrilotriacetic acid (NTA) chelation on Sensor Chip NTA or by amine-coupling on Sensor Chip CM5, on the Fc2 channel. For amine-coupling, the sensor surface on both flow cells was activated for 7 min with a 1:1 mixture of 0.1 M EDC (1-ethyl-3-(3-dimethylaminopropyl) carbodiimide hydrochloride) and 0.1 M NHS (N-hydroxysuccinimide) at a flow rate of 5 μl/min. Immobilization of CKAP4 proteins (on Fc2) was performed in 10 mM sodium acetate buffer, at either pH 4.5, 5.0, or 5.5 based on preliminary pH scouting runs, for optimal binding. Unreacted NHS groups were quenched with a 7 min injection of 1 M ethanolamine pH 8.5. The Fc1 channel was treated similarly but without CKAP4 and served as a reference. Upon stabilization of the baseline signal, multi-cycle kinetics assays were performed with injections of as-APF as analyte at various concentrations (2.5–40 μM) in running buffer at 30 μl/min for 2 min, immediately followed by a 3 min dissociation phase. […] The data were analyzed using Biacore Evaluation software V2.0. […]
Background: Surface plasmon resonance follows binding to a sensor surface in real time, without labels.

Assay [1] has as its system T24 bladder carcinoma cells. The assay can be described thus: XTT cell proliferation assay, T24. The class given is cell-based. Particulars: 20 nM, 96 h, serum-free, relative to vehicle/control, at least four independent times, P < 0.0001 vs control, as-APF vs APF P = 0.0103 (unpaired t-test, Welch's correction). How it is done: T24 bladder carcinoma cells (ATCC #HTB-4; Manassas, VA) were maintained in HyClone-formulated McCoy’s 5A modified media (Catalog #SH30525.01) supplemented with 10% fetal bovine serum (FBS) (Atlanta Biologicals, Flowery Branch, GA), 100 U/ml penicillin, and 100 μg/ml streptomycin (Invitrogen, Carlsbad, CA). Cell proliferation was measured using the XTT Cell Proliferation Assay Kit (ATCC). T24 cells were seeded at 1 × 10^3–4 × 10^3 per well in a 48-well plate in 300 μl/well McCoy’s supplemented medium. Cells were serum-starved for 24 h and then treated with either 20 nM APF, 20 nM as-APF, or 25 μM H2O2 (antiproliferative control) diluted in serum-free McCoy’s medium. Cells were incubated at 37 °C in a 5% CO2 atmosphere for an additional 96 h, after which 150 μl of activated–XTT solution was added to each well followed by an additional 3 h incubation. Absorbance was then measured at 475 nm and 660 nm using an M5 microplate reader (Molecular Devices, Sunnyvale, CA), and the specific absorbance was calculated. P values were assigned using unpaired t-test with Welch’s correction. The assay was repeated four independent times.
(In general: Tetrazolium assays rely on reduction of a dye to a coloured formazan, in cell work by metabolically active cells.)

A further assay deals with T1, CKAP4_127–602 (Homo sapiens, UniProt Q07065).
T1 construct: encompassing only the extracellular domain (Aa 127–602) tagged at the C-terminus with a His-tag (CKAP4_127–602); His-tag (C); made in house; host or cells: E. coli BL21(DE3)pLysS
T1 sequence (Q07065 127-602): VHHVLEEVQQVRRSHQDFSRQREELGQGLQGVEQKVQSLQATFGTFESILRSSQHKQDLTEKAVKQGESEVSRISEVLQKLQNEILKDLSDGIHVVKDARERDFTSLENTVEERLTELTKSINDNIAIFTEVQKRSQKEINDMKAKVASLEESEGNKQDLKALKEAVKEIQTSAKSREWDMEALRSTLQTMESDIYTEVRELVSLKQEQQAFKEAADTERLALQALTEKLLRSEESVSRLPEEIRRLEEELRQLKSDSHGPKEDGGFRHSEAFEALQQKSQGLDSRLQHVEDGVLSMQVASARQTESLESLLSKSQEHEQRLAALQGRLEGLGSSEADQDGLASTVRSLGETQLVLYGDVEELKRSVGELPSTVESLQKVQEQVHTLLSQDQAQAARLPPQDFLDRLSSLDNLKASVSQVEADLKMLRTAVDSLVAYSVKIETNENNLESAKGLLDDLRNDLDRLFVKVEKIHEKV
The assay can be described thus: SPR, CKAP4_127–602 as immobilized ligand. Conditions: CKAP4_127–602 immobilized on NTA chip. The class given is binding. The protocol: as §1

Assay [2] deals with normal bladder epithelial cells. Particulars: in vitro; background statement, no reference given; read-out: IC50, growth inhibition; cited from earlier work. The text has this: (§2) The effects that APF has on cells are remarkable and unique among the reported ligands for CKAP4.
For the next assay, the system named is CKAP4. Conditions: ref [17], [18]; cited from earlier work.
Excerpt: as §2

For the next assay, the system named is HeLa cells. Conditions: in vitro; background statement, no reference given; read-out: IC50, growth inhibition; cited from earlier work.
Excerpt: as §2

The test system of another assay is bladder carcinoma cells. Particulars: in vitro; background statement, no reference given; read-out: IC50, growth inhibition; cited from earlier work.
Excerpt: as §2

A further assay relates to cell proliferation. Conditions: cited from earlier work. How it is done: Cells were treated with 20 nM APF or as-APF for 96 h and the rate of cell growth was measured using the XTT proliferation assay. […] The rate of growth of T24 cells was reduced by 47% with APF and by 60% with as-APF, relative to cells treated with vehicle alone; moreover, the difference in the antiproliferative effect of as-APF and APF was de ...

On to “Neu5Acα2 − 3Galβ1 − 3GalNAcα-O-TVPAAVVVA [APF]”, for which the figures for the binding result with CKAP4_106–602 and on CKAP4_127–602 were “did not bind robustly; also recorded: did not generate sufficient binding” and “did not bind robustly”, respectively. For the same substance, the “reduction of T24 cell proliferation” value in assay [1] was 47% and 47.08 ± 12.88%. Besides, the IC50 was around 1 nM in assay [2]; around 1 nM in the assay on HeLa cells; around 1 nM with bladder carcinoma cells; around 1 nM in the assay with cell proliferation (ref [3], read-out: IC50, inhibition of proliferation). In addition, the “effect on CKAP4 localization” value in the assay with CKAP4 is “internalization, nuclear translocation”. For the same substance, the “relative antiproliferative effect of as-APF and APF” value with cell proliferation (ref [2]) is on record as “more or less equipotent”.
